In one experiment the test system is MCF7. Description: Inhibitory activity against MCF-7 breast cell line using sulforhodamine B (SRB) protein assay. It is filed as functional, cell-based. Particulars: Homo sapiens.
The next experiment concerns PC-3. Put plainly: Inhibitory activity against PC-3 prostate cell line using sulforhodamine B (SRB) protein assay. It is filed as functional, cell-based. Particulars: Homo sapiens.
Another experiment relates to U-251. Description: Inhibitory activity against U251 CNS cell line using sulforhodamine B (SRB) protein assay. It is filed as functional, cell-based. Particulars: Homo sapiens.
A further experiment relates to K562. Put plainly: Iinhibitory activity against K562 leukemia cell line using sulforhodamine B (SRB) protein assay. It is filed as functional, cell-based. Particulars: Homo sapiens.
The next experiment deals with HCT-15 (Homo sapiens). Description: Inhibitory activity against HCT-15 colon cell line using sulforhodamine B (SRB) protein assay. For orientation: In SRB staining, fixed cells bind dye roughly in proportion to their protein.
For a further experiment, the system named is HCT-15. Description: Inhibitory activity against HCT-15 colon cell line using sulforhodamine B (SRB) protein assay. It is filed as functional, cell-based. Particulars: Homo sapiens.

The structures appear in SMILES notation. A value given as a limit tells only on which side of the number the result lay.

As to `COc1cccc2c1CCCN1C(=O)[C@@H](Oc3ccccc3)[C@]21SC`, the half-maximal inhibitory concentration (IC50) in the experiment on MCF7 stood at 33 µM; in the experiment with PC-3 it was 21 µM; in the experiment on U-251, 25 µM; in the experiment on K562, 23 µM; in the experiment with HCT-15 (Homo sapiens) it was 19 µM.

Consider `CS[C@@]12c3cc(C)oc3CC(C)(C)CN1C(=O)[C@H]2Oc1ccccc1`, for which the IC50 with HCT-15 amounted to 56 µM; in the experiment on MCF7, 47 µM; in the experiment on PC-3, 53 µM; in the experiment on U-251, 47 µM; with K562, 31 µM.

Regarding `COc1cccc2c1C(=O)c1c(O)c3c(c(O)c1C2=O)C[C@@](O)(C(=O)CO)C[C@@H]3O[C@H]1C[C@H](N)[C@H](O)[C@H](C)O1` [DOXORUBICIN], the IC50 in the experiment on HCT-15 is 0.23 µM; in the experiment with PC-3 it was 32 µM; in the experiment with U-251, 0.09 µM; in the experiment on K562 it was 0.28 µM.

In the case of `CS[C@@]12c3cc(C)n(-c4ccc(I)cc4)c3CC(C)(C)CN1C(=O)[C@H]2Oc1ccccc1`, the IC50 was over 100 µM in the experiment with HCT-15; over 100 µM in the experiment with MCF7; 87 µM in the experiment with PC-3; 40 µM in the experiment with U-251; over 100 µM in the experiment on K562.

Take `CS[C@@]12c3cc(C)sc3CC(C)(C)CN1C(=O)[C@H]2Oc1ccccc1`: the IC50 in the experiment on HCT-15 is 26 µM; with MCF7 it was 41 µM; with PC-3, 11 µM; in the experiment on U-251, 33 µM; in the experiment with K562 it was 39 µM.

By IC50 is commonly meant the point on the concentration scale where inhibition reaches its midpoint. Lower therefore signals higher potency.

Source of the values: ChEMBL document CHEMBL1135156, “Synthesis of novel furo, thieno, and benzazetoazepines and evaluation of their cytotoxicity” (Bioorg Med Chem Lett, 2002).
